Data as given in patent publication US20180265515A1 (Genentech, Inc., priority 2015, published 2018).

Columns and labels:
[1] = biological target: T1, isolated recombinant JAK1 kinase domain (Homo sapiens, UniProt P23458); test: JAK1 enzyme assay (Caliper LabChip, Ki); type: biochemical; conditions: recombinant JAK1 kinase domain, 25 μM ATP
T1 construct: The activity of the isolated recombinant JAK1 and JAK2 kinase domain was measured
Experimental: (§1) JAK Enzyme Assays were Carried Out as Follows:
(§2) The activity of the isolated recombinant JAK1 and JAK2 kinase domain was measured by monitoring phosphorylation of a peptide derived from JAK3 (Val-Ala-Leu-Val-Asp-Gly-Tyr-Phe-Arg-Leu-Thr-Thr, fluorescently labeled on the N-terminus with 5-carboxyfluorescein) using the Caliper LabChip® technology (Caliper Life Sciences, Hopkinton, Mass.). […] Reactions were incubated at 22° C. in 384-well polypropylene microtiter plates for 30 minutes and then stopped by addition of 25 μL of an EDTA containing solution (100 mM HEPES buffer (pH 7.2), 0.015% Brij-35, 150 mM EDTA), resulting in a final EDTA concentration of 50 mM. After termination of the kinase reaction, the proportion of phosphorylated product was determined as a fraction of total peptide substrate using the Caliper LabChip® 3000 according to the manufacturer's specifications. Ki values were then determined using the Morrison tight binding model (Morrison, J. F., Biochim. Biophys. Acta. 185:269-296 (1969); William, J. W. and Morrison, J. F., Meth. Enzymol., 63:437-467 (1979)) modified for ATP-competitive inhibition [Ki=Ki,app/(1+[ATP]/Km,app)].

[2] = test system: JAK1-dependent STAT6 phosphorylation downstream of IL-13 stimulation in BEAS-2B human bronchial epithelial cells; test: JAK1 pathway assay in BEAS-2B cells (IL-13 stimulated STAT6 phosphorylation, MSD); type: cell-based; conditions: read-out: P-STAT6 BEAS2B + IL13 IC50
Experimental: JAK1 Pathway Assay in Cell Lines was Carried Out as Follows:
Inhibitor potency (EC50) was determined in cell-based assays designed to measure JAK1 dependent STAT phosphorylation. As noted above, inhibition of IL-4, IL-13, and IL-9 signaling by blocking the Jak/Stat signaling pathway can alleviate asthmatic symptoms in pre-clinical lung inflammation models (Mathew et al., 2001, J Exp Med 193(9): 1087-1096; Kudlacz et. al., 2008, Eur J. Pharmacol 582(1-3): 154-161).
In one assay approach, TF-1 human erythroleukemia cells obtained from the American Type Culture Collection (ATCC; Manassas, Va.) were used to measure JAK1-dependent STAT6 phosphorylation downstream of IL-13 stimulation. Prior to use in the assays, TF-1 cells were starved of GM-CSF overnight in OptiMEM medium (Life Technologies, Grand Island, N.Y.) supplemented with 0.5% charcoal/dextran stripped fetal bovine serum (FBS), 0.1 mM non-essential amino acids (NEAA), and 1 mM sodium pyruvate. The assays were run in 384-well plates in serum-free OptiMEM medium using 300,000 cells per well. In a second assay approach, BEAS-2B human bronchial epithelial cells obtained from ATCC were plated at 100,000 cells per well of a 96-well plate one day prior to the experiment. The BEAS-2B assay was run in complete growth medium (bronchial epithelial basal medium plus bulletkit; Lonza; Basel, Switzerland).
Test compounds were serially diluted 1:2 in DMSO and then diluted 1:50 in medium just before use. Diluted compounds were added to the cells, for a final DMSO concentration of 0.2%, and incubated for 30 min (for the TF-1 assay) or 1 hr (for the BEAS-2B assay) at 37° C. Then, cells were stimulated with human recombinant cytokine at their respective EC90 concentrations, as previously determined for each individual lot. Cells were stimulated with IL-13 (R&D Systems, Minneapolis, Minn.) for 15 min at 37° C. The TF-1 cell reactions were stopped by the direct addition of 10× lysis buffer (Cell Signaling Technologies, Danvers, Mass.), whereas the BEAS-2B cell incubations were halted by the removal of medium and addition of 1× lysis buffer. The resultant samples were frozen in the plates at −80° C. Compound mediated inhibition of STAT6 phosphorylation was measured in the cell lysates using MesoScale Discovery (MSD) technology (Gaithersburg, Md.). EC50 values were determined as the concentration of compound required for 50% inhibition of STAT phosphorylation relative to that measured for the DMSO control.

[3] = biological target: T2, isolated recombinant JAK2 kinase domain (Homo sapiens, UniProt O60674); test: JAK2 enzyme assay (Caliper LabChip, Ki); type: biochemical; conditions: 25 μM ATP
T2 construct: The activity of the isolated recombinant JAK1 and JAK2 kinase domain was measured
Experimental: as §1, §2

T2 sequence (O60674 849-1124 limits assumed): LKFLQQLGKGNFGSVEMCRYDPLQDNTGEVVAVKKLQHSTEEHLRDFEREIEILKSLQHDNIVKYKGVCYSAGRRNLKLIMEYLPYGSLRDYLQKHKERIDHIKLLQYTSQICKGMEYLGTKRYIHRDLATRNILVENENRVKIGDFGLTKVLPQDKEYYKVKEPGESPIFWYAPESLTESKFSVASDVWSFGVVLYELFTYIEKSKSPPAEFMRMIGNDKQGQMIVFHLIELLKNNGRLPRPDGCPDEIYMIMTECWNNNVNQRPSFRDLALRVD
T1 sequence (P23458 875-1153 limits assumed): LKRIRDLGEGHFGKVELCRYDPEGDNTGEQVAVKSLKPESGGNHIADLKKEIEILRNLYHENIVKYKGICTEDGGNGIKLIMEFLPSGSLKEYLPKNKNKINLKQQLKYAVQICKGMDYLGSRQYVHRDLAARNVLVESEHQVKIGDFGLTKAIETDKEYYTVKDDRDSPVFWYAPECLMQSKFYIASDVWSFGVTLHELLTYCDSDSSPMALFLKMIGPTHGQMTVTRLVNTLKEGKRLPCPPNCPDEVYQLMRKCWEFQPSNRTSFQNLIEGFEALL

Row | Structure (SMILES) | Ki [1] [nM] | IC50 [2] [nM] | Ki [3] [nM]
1 | CSc1ccc(OC(F)F)c(-c2nn(CC(=O)N3CCC(N(C)CC(=O)N4CCCC4)CC3)cc2NC(=O)c2cnn3cccnc23)c1 [Example 14] | 0.32 | 89 | 0.68
2 | CC(C)Sc1ccc(OC(F)F)c(-c2nn(CC(=O)N3CCC(N(C)CC4OCCO4)CC3)cc2NC(=O)c2cnn3cccnc23)c1 [Example 123, N-[3-[2-(difluoromethoxy)-5-isopropylsulfanyl-phenyl]-1-[2-[4-[1,3-dioxolan-2-ylmethyl(methyl)amino]-1-piperidyl]-2-oxo-ethyl]pyrazol-4-yl]pyrazolo[1,5-a]pyrimidine-3-carboxamide] | 0.79 | 38 | 2
3 | CC(C)Sc1ccc(OC(F)F)c(-c2nn(CC(=O)N3CCN(CC4CCOCC4)CC3)cc2NC(=O)c2cnn3cccnc23)c1 [Example 135, N-[3-[2-(difluoromethoxy)-5-isopropylsulfanyl-phenyl]-1-[2-oxo-2-[4-(tetrahydropyran-4-ylmethyl)piperazin-1-yl]ethyl]pyrazol-4-yl]pyrazolo[1,5-a]pyrimidine-3-carboxamide] | 0.43 | 24 | 0.87
4 | CSc1ccc(OC(F)F)c(-c2nn(CC(=O)N3CC4CCN(C)C4C3)cc2NC(=O)c2cnn3cccnc23)c1 (stereo not drawn) [Example 34, N-[3-[2-(difluoromethoxy)-5-methylsulfanyl-phenyl]-1-[2-(1-methyl-2,3,3a,4,6,6a-hexahydropyrrolo[2,3-c]pyrrol-5-yl)-2-oxo-ethyl]pyrazol-4-yl]pyrazolo[1,5-a]pyrimidine-3-carboxamide] | 0.28 | 5.3 | 0.3
5 | O=C(Nc1cn(CC(=O)N2CCC(CN3CCOCC3)CC2)nc1-c1cc(SC2COC2)ccc1OC(F)F)c1cnn2cccnc12 [Example 183, N-[3-[2-(difluoromethoxy)-5-(oxetan-3-ylsulfanyl)phenyl]-1-[2-[4-(morpholinomethyl)-1-piperidyl]-2-oxo-ethyl]pyrazol-4-yl]pyrazolo[1,5-a]pyrimidine-3-carboxamide] | 0.65 | 33 | 1.5
6 | CC(C)Sc1ccc(OC(F)F)c(-c2nn(CC(=O)N3CCC(N(C)CC(=O)N(C)C)CC3)cc2NC(=O)c2cnn3cccnc23)c1 [Example 105, N-[3-[2-(difluoromethoxy)-5-isopropylsulfanyl-phenyl]-1-[2-[4-[[2-(dimethylamino)-2-oxo-ethyl]-methyl-amino]-1-piperidyl]-2-oxo-ethyl]pyrazol-4-yl]pyrazolo[1,5-a]pyrimidine-3-carboxamide] | 0.43 | 72 | 1.3
7 | CCSc1ccc(OC(F)F)c(-c2nn(CC(=O)N3CCC(N4CCOCC4)CC3)cc2NC(=O)c2cnn3cccnc23)c1 [Example 193] | 0.36 | 17 | 0.57
8 | CSc1ccc(OC(F)F)c(-c2nn(CCNC3COC3)cc2NC(=O)c2cnn3cccnc23)c1 [Example 36, N-[3-[2-(difluoromethoxy)-5-methylsulfanyl-phenyl]-1-[2-(oxetan-3-ylamino)ethyl]pyrazol-4-yl]pyrazolo[1,5-a]pyrimidine-3-carboxamide] | 0.36 | 9.8 | 0.29
9 | CC(C)Sc1ccc(OC(F)F)c(-c2nn(CCN)cc2NC(=O)c2cnn3cccnc23)c1 [Example 112, N-[1-(2-aminoethyl)-3-[2-(difluoromethoxy)-5-isopropylsulfanyl-phenyl]pyrazol-4-yl]pyrazolo[1,5-a]pyrimidine-3-carboxamide] | 0.39 | 18 | 0.39
10 | CCN1CCN(C(=O)Cn2cc(NC(=O)c3cnn4cccnc34)c(-c3cc(SC(C)C)ccc3OC(F)F)n2)CC1 [Example 121, N-[3-[2-(difluoromethoxy)-5-isopropylsulfanyl-phenyl]-1-[2-(4-ethylpiperazin-1-yl)-2-oxo-ethyl]pyrazol-4-yl]pyrazolo[1,5-a]pyrimidine-3-carboxamide] | 0.7 | 31 | 1.3
11 | CSc1ccc(OC(F)F)c(-c2nn(CC(=O)N3CCC(N(C)CC(C)C#N)CC3)cc2NC(=O)c2cnn3cccnc23)c1 (stereo not drawn) [Example 29, N-[1-[2-[4-[2-cyanopropyl(methyl)amino]-1-piperidyl]-2-oxo-ethyl]-3-[2-(difluoromethoxy)-5-methylsulfanyl-phenyl]pyrazol-4-yl]pyrazolo[1,5-a]pyrimidine-3-carboxamide] | 0.26 | 9 | 0.37
12 | CSc1ccc(OC(F)F)c(-c2nn([C@H]3CCCNC3)cc2NC(=O)c2cnn3cccnc23)c1 [Example 9, N-[3-[2-(difluoromethoxy)-5-methylsulfanyl-phenyl]-1-[(3S)-3-piperidyl]pyraxol-4-yl]pyrazolo[1,5-a]pyrimidine-3-carboxamide] | 0.44 | 5.2 | 0.28
13 | CCSc1ccc(OC(F)F)c(-c2nn(CC(=O)N3CCC(N(C)CCC#N)CC3)cc2NC(=O)c2cnn3cccnc23)c1 [Example 194, N-[1-[2-[4-[2-cyanoethyl(methyl)amino]-1-piperidyl]-2-oxo-ethyl]-3-[2-(difluoromethoxy)-5-ethylsulfanyl-phenyl]pyrazol-4-yl]pyrazolo[1,5-a]pyrimidine-3-carboxamide] | 0.31 | 25 | 0.63
14 | CNC(=O)[C@@H]1CCCN1C1CCN(C(=O)Cn2cc(NC(=O)c3cnn4cccnc34)c(-c3cc(SC(C)C)ccc3OC(F)F)n2)CC1 [Example 145, N-[3-[2-(difluoromethoxy)-5-isopropylsulfanyl-phenyl]-1-[2-[4-[(2S)-2-(methylcarbamoyl)pyrrolidin-1-yl]-1-piperidyl]-2-oxo-ethyl]pyrazol-4-yl]pyrazolo[1,5-a]pyrimidine-3-carboxamide] | 0.6 | 100 | 1.6
15 | CC(C)Sc1ccc(OC(F)F)c(-c2nn(CC(=O)N3CCC(N4CCn5cncc5C4)CC3)cc2NC(=O)c2cnn3cccnc23)c1 [Example 139, N-[3-[2-(difluoromethoxy)-5-isopropylsulfanyl-phenyl]-1-[2-[4-(6,8-dihydro-5H-imidazo[1,5-a]pyrazin-7-yl)-1-piperidyl]-2-oxo-ethyl]pyrazol-4-yl]pyrazolo[1,5-a]pyrimidine-3-carboxamide] | 0.51 | 140 | 0.84
16 | CSc1ccc(OC(F)F)c(-c2nn(CC(=O)N3CCC(N4CCO[C@H](CO)C4)CC3)cc2NC(=O)c2cnn3cccnc23)c1 [Example 84, N-[3-[2-(difluoromethoxy)-5-methylsulfanyl-phenyl]-1-[2-[4-[(2S)-2-(hydroxymethyl)morpholin-4-yl]-1-piperidyl]-2-oxo-ethyl]pyrazol-4-yl]pyrazolo[1,5-a]pyrimidine-3-carboxamide] | 0.37 | 44 | 0.53
17 | CSc1ccc(OC(F)F)c(-c2nn(CC(=O)N3CC=CCC3)cc2NC(=O)c2cnn3cccnc23)c1 [Example 67, N-[3-[2-(difluoromethoxy)-5-methylsulfanyl-phenyl]-1-[2-(3,6-dihydro-2H-pyridin-1-yl)-2-oxo-ethyl]pyrazol-4-yl]pyrazolo[1,5-a]pyrimidine-3-carboxamide] | 0.19 | 8.9 | 0.27
